Measurements: ChEMBL document CHEMBL5725962, “Pyrazolo[1,5-A]PYRAZIN-4-YL derivatives” (2018)

How the values were obtained:
[1] = biological target: Tyrosine-protein kinase JAK1 (Homo sapiens, UniProt P23458); test: (§1) JAK Caliper Enzyme Assay at 1 mM ATP: Compounds were added to a 384-well plate. Reaction mixtures contained 10 mM HEPES, pH 7.4, 10 mM MgCl2, 0.01% BSA, 0.0005% Tween 20, 1 mM ATP and 1 μM peptide substrate. The JAK1 and TYK2 assays contained 1 μM of the IRStide peptide (5FAM-[…]) and the JAK2 and JAK3 assays contained 1 μM of the JAKtide peptide (FITC-[…]). The assays were initiated by the addition of 20 nM JAK1, 1 nM JAK2, 1 nM JAK or 1 nM TYK2 enzyme and were incubated at room temperature for three hours for JAK1, 60 minutes for JAK2, 75 minutes for JAK3 or 135 minutes for TYK2. Enzyme concentrations and incubation times were optimized for each new enzyme preps and were modified slightly over time to ensure 20% to 30% phosphorylation. The assays were stopped with 15 μL of 180 mM HEPES, pH 7.4, 20 mM EDTA, and 0.2% Coating Reagent 3. The assay plates were placed on a Caliper Life Science LC3000 instrument, and each well was sampled using appropriate separation conditions to measure the unphosphorylated and phosphorylated peptide.
[2] = biological target: T1, Tyrosine-protein kinase JAK3 (Homo sapiens, UniProt P52333); test: as §1
T1 sequence (P52333 whole entry): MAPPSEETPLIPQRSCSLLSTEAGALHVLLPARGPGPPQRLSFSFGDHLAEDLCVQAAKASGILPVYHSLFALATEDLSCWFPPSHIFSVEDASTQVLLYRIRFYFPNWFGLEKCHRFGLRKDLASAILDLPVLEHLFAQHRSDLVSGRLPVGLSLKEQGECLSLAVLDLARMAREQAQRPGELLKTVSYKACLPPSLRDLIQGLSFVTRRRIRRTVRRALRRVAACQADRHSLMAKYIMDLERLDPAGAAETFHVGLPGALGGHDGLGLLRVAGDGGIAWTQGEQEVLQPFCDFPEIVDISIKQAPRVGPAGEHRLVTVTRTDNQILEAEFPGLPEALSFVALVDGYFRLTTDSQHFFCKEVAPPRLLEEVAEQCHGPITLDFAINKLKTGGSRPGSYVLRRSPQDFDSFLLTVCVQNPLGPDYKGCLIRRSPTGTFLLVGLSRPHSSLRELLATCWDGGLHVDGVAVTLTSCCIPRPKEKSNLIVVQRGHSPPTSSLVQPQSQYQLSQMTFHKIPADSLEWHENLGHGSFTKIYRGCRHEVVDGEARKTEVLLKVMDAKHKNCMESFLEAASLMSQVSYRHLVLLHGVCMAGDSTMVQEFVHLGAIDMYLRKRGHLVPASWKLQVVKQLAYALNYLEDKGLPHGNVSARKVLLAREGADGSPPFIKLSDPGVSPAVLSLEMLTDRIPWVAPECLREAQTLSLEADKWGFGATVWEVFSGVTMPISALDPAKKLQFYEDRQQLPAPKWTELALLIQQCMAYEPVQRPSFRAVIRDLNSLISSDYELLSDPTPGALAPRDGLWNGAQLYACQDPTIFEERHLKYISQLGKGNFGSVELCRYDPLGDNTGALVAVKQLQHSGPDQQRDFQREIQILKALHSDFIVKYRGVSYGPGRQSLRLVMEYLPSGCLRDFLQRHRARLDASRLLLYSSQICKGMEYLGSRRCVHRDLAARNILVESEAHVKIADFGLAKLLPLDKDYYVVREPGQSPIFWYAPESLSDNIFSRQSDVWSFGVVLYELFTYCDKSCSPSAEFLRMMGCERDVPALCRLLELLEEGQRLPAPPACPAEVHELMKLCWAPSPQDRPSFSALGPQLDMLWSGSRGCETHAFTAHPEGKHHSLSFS

[3] = biological target: Non-receptor tyrosine-protein kinase TYK2 (Homo sapiens, UniProt P29597); test: as §1
[4] = biological target: Tyrosine-protein kinase JAK2 (Homo sapiens, UniProt O60674); test: Reaction mixtures contained 10 mM HEPES, pH 7.4, 10 mM MgCl2, 0.01% BSA, 0.0005% Tween 20, 1 mM ATP and 1 μM peptide substrate. […] Enzyme concentrations and incubation times were optimized for each new enzyme preps and were modified slightly over time to ensure 20% to 30% phosphorylation. The assays were stopped with 15 μL of 180 mM HEPES, pH 7.4, 20 mM EDTA, and 0.2% Coating Reagent 3. The assay plates were placed on a Caliper Life Science LC3000 instrument, and each well was sampled using appropriate separation conditions to measure the unphosphorylated and phosphorylated peptide.
Tyrosine-protein kinase JAK2, sequence (O60674 whole entry): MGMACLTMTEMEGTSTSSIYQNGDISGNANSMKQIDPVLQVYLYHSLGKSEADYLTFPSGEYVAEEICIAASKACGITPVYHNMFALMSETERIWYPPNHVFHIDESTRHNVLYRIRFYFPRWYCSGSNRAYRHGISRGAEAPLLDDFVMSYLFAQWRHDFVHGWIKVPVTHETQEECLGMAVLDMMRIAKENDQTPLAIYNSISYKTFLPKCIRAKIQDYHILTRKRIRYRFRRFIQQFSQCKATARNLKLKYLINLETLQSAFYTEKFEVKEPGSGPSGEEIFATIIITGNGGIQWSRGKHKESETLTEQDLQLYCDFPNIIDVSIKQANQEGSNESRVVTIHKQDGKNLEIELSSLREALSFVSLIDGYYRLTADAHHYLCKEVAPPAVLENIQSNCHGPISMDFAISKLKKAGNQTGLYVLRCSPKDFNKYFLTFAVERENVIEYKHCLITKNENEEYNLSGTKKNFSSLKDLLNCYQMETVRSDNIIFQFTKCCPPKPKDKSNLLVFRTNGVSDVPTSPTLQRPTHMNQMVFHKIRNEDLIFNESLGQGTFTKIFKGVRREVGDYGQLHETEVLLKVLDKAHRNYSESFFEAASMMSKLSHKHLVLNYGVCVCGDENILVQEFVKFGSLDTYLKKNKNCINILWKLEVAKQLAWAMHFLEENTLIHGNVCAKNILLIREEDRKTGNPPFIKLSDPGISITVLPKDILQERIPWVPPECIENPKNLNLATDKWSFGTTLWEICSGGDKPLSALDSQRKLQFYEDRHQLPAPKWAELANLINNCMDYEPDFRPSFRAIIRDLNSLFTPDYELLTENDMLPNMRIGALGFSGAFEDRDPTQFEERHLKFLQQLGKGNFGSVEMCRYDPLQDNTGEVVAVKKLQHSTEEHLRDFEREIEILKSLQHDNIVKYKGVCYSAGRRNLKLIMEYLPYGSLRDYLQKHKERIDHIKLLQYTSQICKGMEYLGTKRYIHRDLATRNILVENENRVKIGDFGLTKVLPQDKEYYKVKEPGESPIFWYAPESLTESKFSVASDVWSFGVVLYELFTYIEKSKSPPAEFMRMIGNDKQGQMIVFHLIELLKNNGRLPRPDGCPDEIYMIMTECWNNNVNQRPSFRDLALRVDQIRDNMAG

Non-receptor tyrosine-protein kinase TYK2, sequence (P29597 whole entry): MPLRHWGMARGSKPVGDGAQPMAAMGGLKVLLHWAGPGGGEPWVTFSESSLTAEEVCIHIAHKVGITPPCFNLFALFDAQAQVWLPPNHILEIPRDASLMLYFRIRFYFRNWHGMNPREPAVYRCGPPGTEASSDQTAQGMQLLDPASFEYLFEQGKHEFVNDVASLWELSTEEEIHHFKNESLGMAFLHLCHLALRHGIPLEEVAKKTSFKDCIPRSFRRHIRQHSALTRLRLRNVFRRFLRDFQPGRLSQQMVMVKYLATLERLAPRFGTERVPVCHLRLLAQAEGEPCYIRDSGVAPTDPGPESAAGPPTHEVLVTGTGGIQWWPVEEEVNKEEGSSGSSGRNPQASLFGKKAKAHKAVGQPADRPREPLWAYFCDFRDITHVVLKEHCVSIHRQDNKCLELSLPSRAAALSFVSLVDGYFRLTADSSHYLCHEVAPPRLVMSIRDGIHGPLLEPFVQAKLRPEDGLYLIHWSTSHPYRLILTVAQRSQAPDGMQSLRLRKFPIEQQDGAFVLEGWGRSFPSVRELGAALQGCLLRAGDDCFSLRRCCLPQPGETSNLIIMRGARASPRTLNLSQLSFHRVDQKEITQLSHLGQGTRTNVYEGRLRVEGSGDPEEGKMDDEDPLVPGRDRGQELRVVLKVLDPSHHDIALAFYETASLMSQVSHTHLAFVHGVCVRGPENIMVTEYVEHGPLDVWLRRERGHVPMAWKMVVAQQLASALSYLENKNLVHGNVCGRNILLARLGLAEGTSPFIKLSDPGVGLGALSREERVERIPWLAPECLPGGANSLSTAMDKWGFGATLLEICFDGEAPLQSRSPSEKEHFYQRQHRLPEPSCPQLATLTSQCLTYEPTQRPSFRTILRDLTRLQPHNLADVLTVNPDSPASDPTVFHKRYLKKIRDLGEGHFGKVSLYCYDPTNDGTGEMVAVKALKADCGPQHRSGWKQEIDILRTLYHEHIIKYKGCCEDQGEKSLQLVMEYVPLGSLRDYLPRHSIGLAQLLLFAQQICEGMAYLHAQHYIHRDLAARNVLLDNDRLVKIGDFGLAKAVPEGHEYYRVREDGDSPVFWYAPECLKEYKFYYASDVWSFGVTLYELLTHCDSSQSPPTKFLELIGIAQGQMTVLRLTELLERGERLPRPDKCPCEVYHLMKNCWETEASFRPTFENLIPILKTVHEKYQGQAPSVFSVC
Tyrosine-protein kinase JAK1, sequence (P23458 whole entry): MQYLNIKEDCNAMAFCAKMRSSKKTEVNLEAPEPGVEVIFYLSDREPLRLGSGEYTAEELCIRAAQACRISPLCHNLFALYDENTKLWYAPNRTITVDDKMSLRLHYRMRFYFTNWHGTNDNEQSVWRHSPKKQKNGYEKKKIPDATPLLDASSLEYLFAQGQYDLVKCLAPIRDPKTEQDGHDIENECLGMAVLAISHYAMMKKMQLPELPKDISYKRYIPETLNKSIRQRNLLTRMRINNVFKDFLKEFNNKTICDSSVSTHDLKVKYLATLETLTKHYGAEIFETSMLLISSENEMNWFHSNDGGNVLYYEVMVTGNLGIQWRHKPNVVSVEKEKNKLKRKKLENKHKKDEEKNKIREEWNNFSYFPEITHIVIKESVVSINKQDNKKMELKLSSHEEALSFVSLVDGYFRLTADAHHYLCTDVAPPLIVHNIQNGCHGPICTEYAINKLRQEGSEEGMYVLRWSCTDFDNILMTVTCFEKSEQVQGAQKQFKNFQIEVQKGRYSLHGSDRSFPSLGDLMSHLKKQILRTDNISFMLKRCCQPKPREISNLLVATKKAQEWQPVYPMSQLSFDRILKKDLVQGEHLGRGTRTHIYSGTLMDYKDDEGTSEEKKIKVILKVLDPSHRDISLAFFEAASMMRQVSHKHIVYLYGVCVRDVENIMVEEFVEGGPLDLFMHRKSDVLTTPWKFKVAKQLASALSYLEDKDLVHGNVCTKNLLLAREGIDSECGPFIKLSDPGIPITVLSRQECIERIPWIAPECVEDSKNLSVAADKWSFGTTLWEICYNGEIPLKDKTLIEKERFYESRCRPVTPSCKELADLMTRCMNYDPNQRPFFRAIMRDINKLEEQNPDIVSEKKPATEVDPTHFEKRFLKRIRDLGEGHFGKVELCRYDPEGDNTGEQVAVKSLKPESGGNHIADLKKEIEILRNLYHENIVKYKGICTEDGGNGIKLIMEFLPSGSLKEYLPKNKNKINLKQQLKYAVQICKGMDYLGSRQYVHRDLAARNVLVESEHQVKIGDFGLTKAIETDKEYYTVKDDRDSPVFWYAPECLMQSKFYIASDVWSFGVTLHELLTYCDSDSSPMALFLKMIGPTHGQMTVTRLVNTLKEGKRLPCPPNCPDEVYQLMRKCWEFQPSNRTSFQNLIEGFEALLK

With `Cn1cc(-c2cn3nccc3c(-c3cnn([C@]4(CC#N)C[C@@H](CC#N)C4)c3)n2)cn1` the IC50 [1] was 764 nM, the IC50 [2] was > 10000 nM and the IC50 [3] was 24 nM. The IC50 [4] was 159 nM.
